Laboratory results published in a melting point compilation (Tetko et al.; mined from patent text by program, amines drawn as free bases though some values may be those of a salt).

Row | SMILES | melting point [°C]
1 | CC(C)n1cc2c3c(cccc31)C1CC(C(=O)NC3CCCCC3)CN(C)C1C2 (stereo not given) | > 250
2 | O=C(O)c1ccc(-c2cnc3c(c2)N(Cc2ccccc2)CCN3)cc1 | > 300
3 | COC(=O)c1cc(-c2nc(COc3ccc(COc4nn(-c5ccccc5)cc4C=O)cc3OC)c(C)o2)ccc1C | 195 to 196
4 | CN(c1cccnc1Cl)S(=O)(=O)c1ccccc1[N+](=O)[O-] | 116 to 118
5 | O=C(O)CCCCCCCn1ncc(-c2ccccc2)c1-c1ccccc1 | 94 to 95
6 | Cc1cccc(-c2cn(C)cc(-c3cccc(C(F)(F)F)c3)c2=S)c1 | 193 to 196
7 | O=C(Nc1ccccc1F)C1C(=O)Sc2ccccc21 (stereo not given) | 155 to 156
8 | Cc1c(C#N)ccc(Cl)c1Cl | 78 to 79
9 | O=C(c1ccc(Cl)cc1)c1c(Cl)cc2n1CCC2C(=O)O (stereo not given) | 197
10 | Cc1cccc(NC(=O)C2=C(O)c3ccc4ccccc4c3S(=O)(=O)N2C)c1 | 240 to 242
11 | O=c1[nH]c2cc(Cl)ccc2c(O)c1-c1cccc(S(=O)(=O)c2ccccc2)c1 | 260
12 | CSC(N)=C(C#N)C#N | 228 to 229
13 | CC(C)(C)S(=O)(=O)C(=[N+]=[N-])S(=O)(=O)C(C)(C)C | 121 to 122
14 | CCNC(=O)c1nnc(S)o1 | 210
15 | O=C(c1ccc2n1Cc1ccccc1N(C(=O)c1ccc(-c3cccc4ccccc34)cc1)C2)N(CCO)CCO | 221 to 224
16 | O=C(CCc1ccccc1)Nc1ccc2c(c1)C(=O)c1cc(NC(=O)CCc3ccccc3)ccc1C2=O | 268
17 | Cc1ccnc(C)c1O | 105 to 106
18 | COc1c(-c2cc3c(s2)CCC(O)C3)ccc2c(=O)c(C(=O)O)cn(C3CC3)c12 (stereo not given) | 232 to 233
19 | Cc1c(Cc2cccc(C(F)(F)F)c2)oc2c(-c3cccc(C(=O)NCCO)c3)cccc12 | 158 to 159
20 | COc1ccc(-c2ccc(C=NO)cc2)cc1OC1CCCC1 | 153
21 | CCNC(=O)NC(CC)c1ccc(Cl)c2nc3n(c12)CCCN3c1ccc(Cl)cc1Cl (stereo not given) | 250 to 252
22 | N#CCCOCc1cc(Cl)nc(Cl)c1 | 65.5
23 | O=[N+]([O-])c1cc(-c2cn3ncsc3n2)cc(O)c1O | 278 to 280
24 | Cn1cc(C2=C(c3c4n(c5ccccc35)CC3(CCN(C(=O)OC(C)(C)C)C3)C4)C(=O)NC2=O)c2ccccc21 (stereo not given) | 232 to 235
25 | Cn1c(C(F)(F)F)cc(=O)n(-c2cc(OS(C)(=O)=O)c(Cl)cc2F)c1=O | 176 to 178

Row | SMILES | melting point [°C]
26 | Cc1cc(-c2ccc(C#N)cc2)sc1C(=O)O | 248 to 253
27 | O=S(=O)(c1ccc(O)cc1)c1ccc(F)cc1 | 150 to 154
28 | COc1ccc(S(=O)(=O)C(C)(Cc2ccc(OCCCN3CCC(c4cccc(Cl)c4)CC3)cc2)C(=O)NO)cc1 (stereo not given) | 122
29 | CC1COCc2nc3c(N)nc4ccc(OCC(=O)N5CCOCC5)cc4c3n21 (stereo not given) | 226 to 228
30 | COc1ccc(OCC2(Cc3c(C)nc(OC)c(C(C)C)c3C(=O)c3cc(C)cc(C#N)c3)CC2)cc1 | 179 to 180
31 | COc1ccc(OC)c(C=C2CCn3c2nc2ccc(Cl)cc2c3=O)c1 | 220 to 222
32 | COc1ccc(CCc2ccc(NC=O)cc2)cc1OC | 128 to 130
33 | CCOC(=O)C1=Cc2cc(C(F)(F)F)ccc2NC1C(F)(F)F (stereo not given) | 138 to 139
34 | CN1CCSc2c(C(=O)NC3CN4CCC3CC4)cc(Cl)cc21 (stereo not given) | 195 to 196
35 | Cc1c(CCC2C(=O)OCCC2OC2CCCCO2)c2c(c(C)c1OCc1ccccc1)CCC(C)(C)O2 (stereo not given) | 95 to 95.5
36 | CCCCNC(=O)Nc1ccc(NC)cc1C(=O)NCC1CCN(C(c2ccccc2)c2ccccc2)CC1 | 203 to 204
37 | CC(O)c1ccc(OCCCN2CCC(c3noc4cc(F)ccc34)CC2)c(O)c1 (stereo not given) | 142 to 144
38 | O=S(=O)(Cc1coc(/C=C/c2ccccc2)n1)c1ccc(CCCn2ccnc2)cc1 | 116 to 117
39 | COc1ccc(COCn2cc(Cl)cnc2=O)cc1 | 118
40 | Cc1nc(Cl)c(-c2c(F)cccc2F)n1-c1ccc(Cl)cc1 | 143 to 145
41 | Cc1cc2c(c(C)c1O)C(C)(C)C(C)C2C (stereo not given) | 55 to 57
42 | CCOC(=O)C(=O)CC(=O)C(=CN(C)C)c1ccccc1 | 110
43 | CS(=O)(=O)NCCS(=O)(=O)N1CCN(S(=O)(=O)c2ccc(-c3ccc(C(F)(F)F)cc3)s2)[C@@H](C(=O)NO)C1 | 105 to 108
44 | O=C(c1ccc(-c2ccccc2)cc1)C1CCN(CCc2c[nH]c3ccccc23)CC1 | 189 to 192
45 | CSc1ccc(C2=NC[C@@H](O)[C@H](c3ccccc3)O2)cc1 (racemic) | 130
46 | COc1cc(C(C)=O)ccc1SCCCN1CCC(c2noc3cc(F)ccc23)CC1 | 93 to 95
47 | Nc1cc(-c2nnc(SCc3cccc(F)c3)o2)ccn1 | 175 to 176
48 | NNC1=Nc2ccc(Br)cc2C(c2ccccn2)=NC1 | 218 to 228
49 | COc1cc(OC)c(N2CCCC2)cc1/C=C/C(=O)c1ccc(S(N)(=O)=O)cc1 | 220 to 222
50 | CCn1cc(C(=O)OCC(=O)OCC2CCCCC2)c(=O)c2ccc(C)nc21 | 130 to 132

Row | SMILES | melting point [°C]
51 | COC(=O)c1cc(I)c(O)c(C(C)(C)C)c1 | 67
52 | CC(=O)N1CCCC2=C1CCc1cccc(Cl)c12 | 117 to 118
53 | COc1ccc(C2(c3ccc(OC)cc3)CC2(Cl)Cl)cc1 | 138
54 | Cc1ccccc1C(=O)Nc1ccc(C(=O)N2CCCC(NC(=O)CN(C)C)c3ccccc32)cc1 (stereo not given) | 214 to 216
55 | CC1(C)OC(=O)c2c(O)cc(OCc3ccccc3)cc2O1 | 80
56 | CCOC(=O)C(C(=O)OCC)N(Cc1ccccc1)Cc1ccc(OC)cc1OC | 62 to 63
57 | CCOC(=O)C(=O)CC(=O)c1cn(Cc2ccccc2)c2ccccc2c1=O | 141 to 142
58 | COc1cc2c(cc1Cl)C(=O)Cc1ccc(F)cc1S2 | 195 to 197
59 | CCSC1=C(c2ccc(O)cc2)C(=O)c2ccc(O)cc21 | 100 to 102
60 | C[C@@H](CCCCC(=O)O)NC(=O)OCc1ccccc1 | 82 to 83
61 | CSc1nc(C)c(Cc2ccccc2)c(=O)[nH]1 | 220 to 222
62 | Cc1ccc(S(=O)(=O)OCC2CCc3nc(C)sc3C2)cc1 (stereo not given) | 70 to 71
63 | CCOC(=O)c1ccc(NCC(C)Oc2ccc(Cl)c3ccccc23)cc1 (stereo not given) | 122
64 | CON(C)C(=O)CCc1nnc(-c2ccc3c(c2)CCO3)o1 | 112 to 113
65 | COc1ccc2c(C(=O)O)cc3cc4c(cc3c2c1)OCO4 | 293 to 295
66 | CC1C(=O)N(Nc2ccccc2)C1C#C[Si](C)(C)C (stereo not given) | 136
67 | NS(=O)(=O)c1cccc(-c2noc(-c3cnn4c(C(F)(F)F)cc(-c5ccc(Cl)cc5)nc34)n2)c1 | 247
68 | Cc1nc(SCc2ccncc2C(=O)O)sc1CC(=O)O | 178 to 180
69 | COc1ccc(C(C)(O)CO)cc1CN[C@H]1C2CCN(CC2)[C@H]1C(c1ccccc1)c1ccccc1 (stereo not given in full) | 65.5 to 82.8
70 | COC(=O)C1C(=O)N(C)C(=O)c2ccc(Cl)cc21 (stereo not given) | 166 to 167
71 | COC(=O)C1(C(N)=O)C(C(N)=O)=NC(c2ccccc2)=C1N (stereo not given) | 177 to 179
72 | NS(=O)(=O)c1cc(C(=O)O)cc(NCc2ccccc2)c1Oc1ccc(OCc2ccccc2)cc1 | 249 to 251
73 | COc1ccc(-c2c3nn(-c4ccc(OC)cc4)c(=O)c-3c[nH]c2C)cc1 | 274 to 282
74 | CCN1c2ncccc2C(=O)N(C)c2ccc(-c3c[nH]c(C(N)=O)c3)nc21 | 284 to 285
75 | c1ccc2[nH]c(-c3cc[nH]n3)nc2c1 | 335 to 338

Row | SMILES | melting point [°C]
76 | CC(C)(C)OC(=O)NCCCCNOC(=O)c1ccccc1 | 113 to 114
77 | CCCCc1nc2c(N)nc(C)c(C)c2n1CCCCNC(=O)Nc1ccccc1 | 196 to 197
78 | COc1cc(Cc2cnc(N)nc2N)cc2c1OC(C)(C)C=C2c1ccccc1 | > 260
79 | O=C(O)Cc1c[nH]c(-c2cc3nc(C(=O)O)c(=O)[nH]c3cc2[N+](=O)[O-])n1 | > 300
80 | Clc1ccc2c(c1)N(c1ncnc3c(Cl)cccc13)CC2 | 190
81 | Cn1c(-c2ccccc2)c(CCCl)sc1=O | 88 to 90
82 | Cc1cc2oc(=O)c3c(c2cc1[N+](=O)[O-])CCN(CCN1CC2CCC(CC2)C1)C3 | 187 to 188
83 | Cc1cc2cc(CN3CCCC3)cnc2cc1NC(=O)c1ccc(-c2ccc(Cl)cc2)nc1 | 232 to 237
84 | CCCCCCCCNC(=O)OCc1ccccc1[N+](=O)[O-] | 70 to 71
85 | COc1ccc(C(=O)Nc2ccccc2)cc1NC(=S)Nc1cccc([N+](=O)[O-])c1 | 188 to 189
86 | CN1Cc2c(-c3cccs3)ncn2-c2cccc(Cl)c2C1=O | 222 to 223
87 | COC(=O)c1cc(OC)c(Br)cc1Cl | 78 to 79
88 | CC(=O)NC[C@H]1CN(c2ccc(C3CCN(C(=O)OC(C)(C)C)CC3)c(F)c2)C(=O)O1 | 144 to 146
89 | COc1ccc(S(=O)(=O)C(CCCCc2ccccc2)CC(=O)NO)cc1OC (stereo not given) | 157 to 159
90 | CS(=O)(=O)c1ccc(C(=O)c2cc(Cl)ccc2N)cc1 | 176 to 177
91 | CC1(C)CC(S(=O)(=O)C(F)c2c(F)cccc2F)=NO1 (stereo not given) | 88
92 | CNCCc1[nH]c2ccccc2c1-c1ccccc1 | 148 to 151
93 | CC(C(=O)O)c1ccc(CC(Cl)(Cl)Cl)c(F)c1 (stereo not given) | 92 to 94
94 | Nc1ncccc1C(=O)NCC1CCN(CC2COc3ccccc3O2)CC1 (stereo not given) | 104 to 106
95 | NC(=O)N(O)C1CCC(c2ccccc2)CC1 (stereo not given) | 161 to 162
96 | Cn1cc(C2=C(c3c4n(c5ccccc35)CCC(CCN=[N+]=[N-])C4)C(=O)NC2=O)c2ccccc21 (stereo not given) | 262 to 264
97 | Cc1cc(OCC(=O)c2ccc(C(C)C)cc2)c(C)c(C)c1Br | 71 to 72
98 | COC(=O)/C=C/c1ccc(C)cc1Br | 70
99 | O=C(O)c1cc2c(=O)n(-c3ccccc3)c3ccccc3n2c1 | 304 to 306
100 | Cc1ccc(-c2c3ccccc3nc3ccc(N(S(C)(=O)=O)S(C)(=O)=O)cc23)cc1 | 217 to 219
